{
  "source": "patent US20110160250A1",
  "about": "“CRYSTALLINE FORMS OF A FACTOR XA INHIBITOR” (Millennium Pharmaceuticals, Inc., priority 2009, published 2011)",
  "key": {"[1]": {"assay": "Pharmacokinetics of Compound I in rat after intravenous and oral administration (plasma and urine LC/MS/MS, noncompartmental analysis)", "assay_type": "in vivo, male Sprague-Dawley rats", "settings": "mean ± SD; for half-life: read-out: T1/2 (terminal half-life) (converted); for Vd: iv", "procedure": "(§1) The following experiments were conducted using samples of Compound I prepared by a method disclosed in U.S. Pat. No. 7,763,608, which is incorporated by reference in its entirety.\nCompound I was used in the rat investigation. An intravenous (IV) and oral (PO) dose of Compound I (1.0 and 10 mg/kg, respectively) was prepared. The IV dose was solubilized in 50% PEG300 to yield a final concentration of 1.0 mg/mL with a final pH of 5.13. The PO dose was suspended in 0.5% methylcellulose at a concentration of 2.0 mg/mL with a final pH of 2.70.\n(§2) A total of six male Sprague-Dawley rats (n=3/dosing group) from Charles River Laboratories (Hollister, Calif.), three male beagle dogs from Marshall BioResources (North Rose, N.Y.) and three male rhesus monkeys were utilized. All surgical procedures in rat (femoral and jugular vein catheterizations) were performed 8 days prior to utilization in the study and rats were acclimated in-house 5 days prior to utilization. Dogs were acclimated in-house at least seven days prior to utilization and were returned to the colony at the completion of the study. Monkey studies were conducted by an off-site contract laboratory.\n(§3) All animals were fasted from the afternoon prior to study initiation to two hours post-dose (approximately 18 hours). Water was provided ad libitum. All animal rooms were on a 12 hour light-dark cycles (6 A.M. to 6 P.M.). On the morning of experimentation, animals were weighed. Rat femoral and jugular (IV only) vein blood lines were exteriorized and attached to access ports. Dogs were weighed and shaved at blood sampling and IV dosing sites (along both cephalic and saphenous veins).\n(§4) All animals were dosed based on individual weights with a PO gavage volume of 5.0 mL/kg and an IV bolus dose volume of 1.0 mL/kg. Blood samples were obtained on 3.8% TSC (1:10 dilution) over a 24, 56, and 96 hour period post-dosing for the rat, dog, and monkey, respectively. Blood samples were centrifuged for platelet poor plasma, and resulting plasma was stored at −20° C. until sample analysis. Rat urine samples were collected on 200 μL of 2% boric acid from animals in the IV group at 0 (overnight), 10, and 24 hours post-dose. At collection times, urine volume and water consumption was recorded. Urine samples were stored at −20° C. until sample analysis.\n(§5) Plasma and urine samples were analyzed for Compound I concentration using a liquid chromatography tandem mass spectrometry (LC/MS/MS). In brief, plasma and urine samples were processed in a 96-well Captiva™ filter plate (0.2 μm, Varian, Inc., Palo Alto, Calif.). Aliquots of plasma samples were precipitated with acetonitrile containing 500 ng/mL of N-(2-(5-chloropyridin-2-ylcarbaomoyl)-4-methoxyphenyl)-4-(N,N-dimethylcarbamimidoyl)-2-fluorobenzamide, an internal standard. Aliquots of urine samples were diluted with plasma before mixing with acetonitrile containing internal standard. The mixture was vortexed and refrigerated at 4° C. for 30 minutes to allow complete protein precipitation. The mixture was filtered into a 96-well collection plate. The filtrate was injected onto a Sciex API3000 LC/MS/MS equipped with a turbo-ion spray source. Compound I and N-(2-(5-chloropyridin-2-ylcarbaomoyl)-4-methoxyphenyl)-4-(N,N-dimethylcarbamimidoyl)-2-fluorobenzamide were separated on a Thermo Hypersil-Keystone Betasil C18 column (4.6×100 mm, 5 μm; Fisher Scientific, Houston, Tex.). A mobile phase gradient mixture of 90% mobile phase A (0.5% formic acid in water) and 10% mobile phase B (0.5% formic acid in 90% acetonitrile) to 40% mobile phase B (programmed over 2.8 minutes). The peak areas of the m/z 411→250 product ion (Compound I) were measured against those of the m/z 470→342 product ion (N-(2-(5-chloropyridin-2-ylcarbaomoyl)-4-methoxyphenyl)-4-(N,N-dimethylcarbamimidoyl)-2-fluorobenzamide) in positive ion mode. The analytical range was 0.500 to 10,000 ng/mL.\n(§6) Sample Compound I concentrations below the lower limit of quantitation (LLQ) were reported as <0.500 ng/mL. […]"}, "[2]": {"assay": "Pharmacokinetics of Compound I in dog after intravenous and oral administration (plasma LC/MS/MS, noncompartmental analysis)", "assay_type": "in vivo, male beagle dogs", "settings": "mean ± SD; for Vd: iv", "procedure": "as §1\n(§7) For the dog and monkey study, Compound I was also used. An IV and PO dose of Compound I (1.0 and 5.0 mg/kg, respectively) was prepared. The IV dose was formulated similarly to that used in the rat study (50% PEG300 in water). The PO dose was suspended in 0.5% methylcellulose at a concentration of 1.0 mg/mL with a final pH of approximately 3.50.\nas §2, §3, §4, §5, §6"}, "[3]": {"assay": "Pharmacokinetics of Compound I in monkey after intravenous and oral administration (plasma LC/MS/MS, noncompartmental analysis)", "assay_type": "in vivo, male rhesus monkeys", "settings": "mean ± SD; for Vd: iv", "procedure": "as §1, §7, §2, §3, §4, §5, §6"}, "[4]": {"settings": "male, Sprague-Dawley, plasma, intravenous, 1 mg/kg"}, "[5]": {"settings": "male, Sprague-Dawley, plasma, oral, 10 mg/kg"}, "[6]": {"settings": "male, beagle, plasma, intravenous, 1 mg/kg"}, "[7]": {"settings": "male, beagle, plasma, oral, 5 mg/kg"}, "[8]": {"settings": "male, rhesus, rhesus monkey, plasma, intravenous, 1 mg/kg"}, "[9]": {"settings": "male, rhesus, rhesus monkey, plasma, oral, 5 mg/kg"}},
  "note": "Where two headings read alike, the source gives them in different places.",
  "data": [
    {"compound": "O=C(NCc1cn(-c2ccc(-n3ccccc3=O)cc2)cn1)c1ccc(Cl)s1", "note": "[Compound I, 5-chloro-N-((1-(4-(2-oxopyridin-1(2H)-yl)phenyl)-1H-imidazol-4-yl)methyl)thiophene-2-carboxamide]", "values": [
      {"measurement": "Dose excreted unchanged in urine", "setting": "[1]; intravenous, 1 mg/kg", "result": "0.248 ± 0.019", "unit": "%"},
      {"measurement": "AUC", "setting": "[1]; [4]", "result": "5.38 ± 1.19", "unit": "µg·h/mL"},
      {"measurement": "AUC(0-inf)", "setting": "[1]; [4]", "result": "5.4 ± 1.16", "unit": "µg·h/mL"},
      {"measurement": "clearance", "setting": "[1]; male, Sprague-Dawley, plasma, intravenous, 1 mg/kg, read-out: CL (systemic clearance)", "result": "0.191 ± 0.044", "unit": "L/h/kg"},
      {"measurement": "half-life", "setting": "[1]; [4]", "result": "2.86 ± 1.4", "unit": "h"},
      {"measurement": "Vd", "setting": "[1]; male, Sprague-Dawley, plasma, 1 mg/kg, intravenous, 1 mg/kg, read-out: Vss (volume of distribution at steady-state)", "result": "0.368 ± 0.026", "unit": "L/kg"},
      {"measurement": "Vd", "setting": "[1]; male, Sprague-Dawley, plasma, 1 mg/kg, intravenous, 1 mg/kg, read-out: Vz (volume of distribution)", "result": "0.757 ± 0.328", "unit": "L/kg"},
      {"measurement": "AUC", "setting": "[1]; [5]", "result": "68.5 ± 12.5", "unit": "µg·h/mL"},
      {"measurement": "AUC(0-inf)", "setting": "[1]; [5]", "result": "68.6 ± 12.5", "unit": "µg·h/mL"},
      {"measurement": "Cmax", "setting": "[1]; [5]", "result": "28.9 ± 2.08", "unit": "µg/mL"},
      {"measurement": "Tmax", "setting": "[1]; [5]", "result": 0.25, "unit": "h"},
      {"measurement": "half-life", "setting": "[1]; [5]", "result": "2.72 ± 0.29", "unit": "h"},
      {"measurement": "AUC/D (dose-normalized AUC(0-inf))", "setting": "[1]; oral, 10 mg/kg", "result": "6859 ± 1249", "unit": "kg·h/mL"},
      {"measurement": "AUC", "setting": "[2]; [6]", "result": "1.61 ± 0.36", "unit": "µg·h/mL"},
      {"measurement": "AUC(0-inf)", "setting": "[2]; [6]", "result": "1.62 ± 0.363", "unit": "µg·h/mL"},
      {"measurement": "clearance", "setting": "[2]; male, beagle, plasma, intravenous, 1 mg/kg, read-out: CL (systemic clearance)", "result": "0.642 ± 0.161", "unit": "L/h/kg"},
      {"measurement": "Vd", "setting": "[2]; male, beagle, plasma, 1 mg/kg, intravenous, 1 mg/kg, read-out: Vss (volume of distribution at steady-state)", "result": "0.843 ± 0.288", "unit": "L/kg"},
      {"measurement": "Vd", "setting": "[2]; male, beagle, plasma, 1 mg/kg, intravenous, 1 mg/kg, read-out: Vz (volume of distribution)", "result": "2.73 ± 2.45", "unit": "L/kg"},
      {"measurement": "AUC", "setting": "[2]; [7]", "result": "5.46 ± 1.47", "unit": "µg·h/mL"},
      {"measurement": "AUC(0-inf)", "setting": "[2]; [7]", "result": "5.48 ± 1.48", "unit": "µg·h/mL"},
      {"measurement": "Cmax", "setting": "[2]; [7]", "result": "2.72 ± 0.474", "unit": "µg/mL"},
      {"measurement": "Tmax", "setting": "[2]; [7]", "result": "0.583 ± 0.382", "unit": "h"},
      {"measurement": "AUC/D (dose-normalized AUC(0-inf))", "setting": "[2]; oral, 5 mg/kg", "result": "1095 ± 295", "unit": "kg·h/mL"},
      {"measurement": "AUC", "setting": "[3]; [8]", "result": "12.6 ± 6", "unit": "µg·h/mL"},
      {"measurement": "AUC(0-inf)", "setting": "[3]; [8]", "result": "12.6 ± 6", "unit": "µg·h/mL"},
      {"measurement": "clearance", "setting": "[3]; male, rhesus, rhesus monkey, plasma, intravenous, 1 mg/kg, read-out: CL (systemic clearance)", "result": "0.0996 ± 0.0636", "unit": "L/h/kg"},
      {"measurement": "Vd", "setting": "[3]; male, rhesus, rhesus monkey, plasma, 1 mg/kg, intravenous, 1 mg/kg, read-out: Vss (volume of distribution at steady-state)", "result": "0.353 ± 0.059", "unit": "L/kg"},
      {"measurement": "Vd", "setting": "[3]; male, rhesus, rhesus monkey, plasma, 1 mg/kg, intravenous, 1 mg/kg, read-out: Vz (volume of distribution)", "result": "2.31 ± 1.71", "unit": "L/kg"},
      {"measurement": "AUC", "setting": "[3]; [9]", "result": "42.1 ± 17.2", "unit": "µg·h/mL"},
      {"measurement": "AUC(0-inf)", "setting": "[3]; [9]", "result": "42.1 ± 17.2", "unit": "µg·h/mL"},
      {"measurement": "Cmax", "setting": "[3]; [9]", "result": "6.04 ± 1.88", "unit": "µg/mL"},
      {"measurement": "Tmax", "setting": "[3]; [9]", "result": 2, "unit": "h"},
      {"measurement": "AUC/D (dose-normalized AUC(0-inf))", "setting": "[3]; oral, 5 mg/kg", "result": "8430 ± 3449", "unit": "kg·h/mL"}
    ]}
  ]
}
